Results taken from patent US8399465B2, “Compounds with two fused bicyclic heteroaryl moieties as modulators of leukotriene A4 hydrolase” (Janssen Pharmaceutica NV, priority 2009, dated 2013).
Where two headings read alike, the source gives them in different places.

Legend:
[1] = tested on: LTB4 production in murine blood (LTA4H); experiment: LTB4 production by calcium ionophore-stimulated murine blood for LTA4H inhibitor activity; assay type: cell-based, CD-1 mice; details: Mus musculus; murine blood diluted 1 in 15, A23187 stimulated; single determination or average; mark after value = form tested: ′ free base, ″ hydrochloride, ^ formate; read-out: IC50
In short: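 LTB4 was measured by ELISA in supernatants after calcium ionophore A23187 stimulation (final 7 μg/mL, 30 min, 37° C) of CD-1 mouse blood collected on heparin. Compound was preincubated with the blood for 15 min beforehand. Values come from one determination or average several.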

[2] = target: T1, recombinant human LTA4 hydrolase (rhLTA4H) (Homo sapiens, UniProt P09960); experiment: Recombinant human LTA4 hydrolase assay for LTA4 hydrolase inhibitor activity; assay type: biochemical
T1 construct: made in house; host or cells: Spodoptera frugiperda (Sf-9) cells, baculovirus (pFastBac1)
T1 sequence (P09960 1-611): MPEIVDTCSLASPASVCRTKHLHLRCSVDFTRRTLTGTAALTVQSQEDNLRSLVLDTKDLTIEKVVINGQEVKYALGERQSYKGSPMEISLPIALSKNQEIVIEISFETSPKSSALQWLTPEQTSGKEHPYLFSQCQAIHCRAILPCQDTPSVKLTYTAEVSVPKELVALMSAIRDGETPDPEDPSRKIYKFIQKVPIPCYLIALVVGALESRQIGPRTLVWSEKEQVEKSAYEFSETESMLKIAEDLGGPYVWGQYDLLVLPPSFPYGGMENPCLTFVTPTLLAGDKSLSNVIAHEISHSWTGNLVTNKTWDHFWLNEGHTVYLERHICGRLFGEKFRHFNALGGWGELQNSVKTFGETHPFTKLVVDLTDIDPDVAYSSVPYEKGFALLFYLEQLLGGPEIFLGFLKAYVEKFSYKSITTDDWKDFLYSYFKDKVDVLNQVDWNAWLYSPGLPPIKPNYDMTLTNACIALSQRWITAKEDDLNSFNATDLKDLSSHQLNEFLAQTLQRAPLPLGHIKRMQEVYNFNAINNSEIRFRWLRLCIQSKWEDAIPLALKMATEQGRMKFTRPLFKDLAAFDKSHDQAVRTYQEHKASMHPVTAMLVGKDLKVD
In short: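 LTB4 formation, measured by enzyme immunoassay, was the read-out. The enzyme, recombinant human LTA4H expressed in Sf-9 insect cells (10 ng per reaction), was exposed to compound for 10 min at room temperature before hydrolysed-ester LTA4 substrate was added for 30 min. Enzyme-free negatives were included.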

[3] = tested on: ex vivo calcium ionophore-stimulated LTB4 production in whole blood; experiment: Murine arachidonic acid-induced inflammation model: ex vivo stimulated LTB4 production in blood; design: species or system Balb/c mice; details: Mus musculus; 30 mg/kg oral gavage; blood diluted 1:1, A23187 stimulated ex vivo; percent inhibition of LTB4 production; read-out: % Inh. LTB4
Experimental: (§1) Assay 3: Murine Arachidonic Acid-Induced Inflammation Model
(§2) LTA4H inhibitor compounds of the present invention were dissolved in 20% cyclodextran/H2O at a concentration of 3 mg/mL. The solutions were administered by oral gavage to female Balb/c mice weighing approximately 20 grams each (0.2 mL per mouse, 30 mg of LTA4H inhibitor compound per kg). Sixty minutes after being administered an LTA4 inhibitor, each mouse received topical application of 20 μL of arachidonic acid (100 mg/mL in acetone) to the left ear and 20 μL of acetone only to the right ear. After 3 h, the mice were sacrificed, blood was withdrawn in heparinized syringes, and 8 mm ear biopsies were taken. Ear biopsies were weighed to determine edema and then frozen at −80° C. until needed for determination of neutrophil influx.
The microtiter plate contents were incubated for 30 min at 37° C. in a humidified incubator. The reaction was terminated by centrifugation (833×g, 10 min at 4° C.). Supernatants were analyzed for LTB4 by a commercially available enzyme-linked immunoassay (Cayman Chemical Co.) in accordance with the manufacturer's instructions. The percent inhibition of ex vivo stimulated LTB4 production (% Inh. LTB4) was determined by comparison to animals treated identically except that the solution administered by oral gavage was devoid of inhibitor compound.

[4] = tested on: arachidonic acid-induced neutrophil influx in murine ear tissue; experiment: Murine arachidonic acid-induced inflammation model: neutrophil influx (myeloperoxidase) in ear; assay type: in vivo, Balb/c mice; details: Mus musculus; 30 mg/kg oral gavage, 60 min before topical arachidonic acid, ear biopsy after 3 h; percent inhibition of neutrophil influx; read-out: % Inh. MPO
Experimental: as §1, §2
Neutrophil influx was quantified by measuring the activity of myeloperoxidase (MPO), a neutrophil-specific enzyme. […] Debris was removed by centrifugation at 14000×g for 10 min. […] The microtiter plate contents were held at room temperature until the sample with the highest concentration of MPO reached an absorbance value of 0.4 at 650 nm. The reaction was stopped by addition of 50 μL 1 M H2SO4 to each sample well, and the myeloperoxidase activity in each sample was determined from the absorbance at […]. The background value from the right ear, treated only with acetone, was subtracted from that for the left ear, treated with arachidonic acid in acetone, for each animal. The percent inhibition of neutrophil influx (% Inh. MPO) by compounds of the invention was determined by comparison to animals treated identically, except that the solution administered by oral gavage was devoid of inhibitor compound. All compounds were assayed in their free base form.

[5] = rhLTA4H, LTB4 by immunoassay, single determination or average of two or more, mark after value = form tested: ′ free base, ″ hydrochloride, ^ formate, read-out: IC50

Compound | IC50 [1] [nM] | IC50 [2, 5] [nM] | inhibition at 30 mg/kg [3] [%] | inhibition at 30 mg/kg [4] [%] | IC50 [2] [nM]
CC(=O)N1C[C@@H]2C[C@H]1CN2Cc1cc2cc(Oc3nc4ncccc4s3)ccc2o1 [Example 95, (1S,4S)-1-{5-[5-(Thiazolo[4,5-b]pyridin-2-yloxy)-benzofuran-2-ylmethyl]-2,5-diaza-bicyclo[2.2.1]hept-2-yl}-ethanone] | 26 | 5 | 80 | 79 | –
O=C1CCCN1C1CCN(Cc2cc3cc(Oc4nc5ncccc5s4)ccc3o2)CC1 [Example 96, 1-{1-[5-(Thiazolo[4,5-b]pyridin-2-yloxy)-benzofuran-2-ylmethyl]-piperidin-4-yl}-pyrrolidin-2-one] | 110 | 140 | 66 | 53 | –
c1cnc2nc(Oc3ccc4oc(CN5C[C@@H]6C[C@H]5CO6)cc4c3)sc2c1 [Example 99, (1S,4S)-2-[2-(2-Oxa-5-aza-bicyclo[2.2.1]hept-5-ylmethyl)-benzofuran-5-yloxy]-thiazolo[4,5-b]pyridine] | 63 | 37 | 15 | 58 | –
NC(=O)N1C[C@@H]2C[C@H]1CN2Cc1cc2cc(Oc3nc4ncccc4s3)ccc2o1 [Example 100, (1S,4S)-5-[5-(Thiazolo[4,5-b]pyridin-2-yloxy)-benzofuran-2-ylmethyl]-2,5-diaza-bicyclo[2.2.1]heptane-2-carboxylic acid amide] | 160 | 69 | 44 | 33 | –
NC(=O)N1C[C@H]2C[C@@H]1CN2Cc1cc2cc(Oc3nc4ncccc4s3)ccc2o1 [Example 101, (1R,4R)-5-[5-(Thiazolo[4,5-b]pyridin-2-yloxy)-benzofuran-2-ylmethyl]-2,5-diaza-bicyclo[2.2.1]heptane-2-carboxylic acid amide] | 202 | 52 | 53 | 65 | –
NC(=O)N[C@H]1C[C@H]2CC[C@@H](C1)N2Cc1cc2cc(Oc3nc4ncccc4s3)ccc2o1 [Example 103, meso-endo-N-{8-[5-(Thiazolo[4,5-b]pyridin-2-yloxy)-benzofuran-2-ylmethyl]-8-aza-bicyclo[3.2.1]oct-3-yl}-urea] | 132 | 4 | 0 | 18 | –
CC(=O)N[C@@H]1C[C@H]2CC[C@@H](C1)N2Cc1cc2cc(Oc3nc4ncccc4s3)ccc2o1 [Example 104, meso-exo-N-{8-[5-(Thiazolo[4,5-b]pyridin-2-yloxy)-benzofuran-2-ylmethyl]-8-aza-bicyclo[3.2.1]oct-3-yl}-acetamide] | 16 | 10 | 83 | 92 | –
CC(=O)N[C@@H]1C[C@H]2CC[C@@H](C1)N2Cc1cc2ccc(Oc3nc4ncccc4s3)cc2o1 [Example 106, meso-exo-N-{8-[6-(Thiazolo[4,5-b]pyridin-2-yloxy)-benzofuran-2-ylmethyl]-8-aza-bicyclo[3.2.1]oct-3-yl}-acetamide] | 14 | 7 | 85 | 81 | –
CC(=O)N1C[C@H]2C[C@@H]1CN2Cc1cc2ccc(Oc3nc4ncccc4s3)cc2o1 [Example 107, (1R,4R)-1-{5-[6-(Thiazolo[4,5-b]pyridin-2-yloxy)-benzofuran-2-ylmethyl]-2,5-diaza-bicyclo[2.2.1]hept-2-yl}-ethanone] | 276 | 65 | 75 | 82 | –
CN(C)Cc1cc2cc(Oc3nc4ncccc4s3)ccc2o1 [Example 112, Dimethyl-[5-(thiazolo[4,5-b]pyridin-2-yloxy)-benzofuran-2-ylmethyl]-amine] | 70 | 42 | 56 | 17 | –
NC(=O)C1CCN(Cc2cc3ccc(Oc4nc5ncccc5s4)cc3o2)CC1 [Example 116, 1-[6-(Thiazolo[4,5-b]pyridin-2-yloxy)-benzofuran-2-ylmethyl]-piperidine-4-carboxylic acid amide] | 55 | 44 | 76 | 66 | –
CC(=O)N[C@H]1C[C@H]2CC[C@@H](C1)N2Cc1cc2ccc(Oc3nc4ncccc4s3)cc2o1 [Example 118, meso-endo-N-{8-[6-(Thiazolo[4,5-b]pyridin-2-yloxy)-benzofuran-2-ylmethyl]-8-aza-bicyclo[3.2.1]oct-3-yl}-acetamide] | 50 | 23 | 89 | 97 | –
CC(=O)N1C[C@H]2CC[C@@H](C1)N2Cc1cc2ccc(Oc3nc4ncccc4s3)cc2o1 [Example 119, meso-1-{8-[6-(Thiazolo[4,5-b]pyridin-2-yloxy)-benzofuran-2-ylmethyl]-3,8-diaza-bicyclo[3.2.1]oct-3-yl}-ethanone] | 220 | 36 | 78 | 83 | –
CC(=O)N[C@H]1C[C@H]2CC[C@@H](C1)N2Cc1cc2ccc(Oc3nc4ncccc4s3)cc2s1 [Example 135, meso-endo-N-{8-[6-(Thiazolo[4,5-b]pyridin-2-yloxy)-benzo[b]thiophen-2-ylmethyl]-8-aza-bicyclo[3.2.1]oct-3-yl}-acetamide] | 110 | 3 | 85 | 42 | –
CC(=O)N1C[C@H]2CC[C@@H](C1)N2Cc1coc2cc(Oc3nc4ncccc4s3)ccc12 [Example 153, 1-{8-[6-(Thiazolo[4,5-b]pyridin-2-yloxy)-benzofuran-3-ylmethyl]-3,8-diaza-bicyclo[3.2.1]oct-3-yl}-ethanone] | 25 | 2 | 84 | 82 | –
CC(=O)N1C[C@@H]2C[C@H]1CN2Cc1coc2cc(Oc3nc4ncccc4s3)ccc12 [Example 154, (1S,4S)-1-{5-[6-(Thiazolo[4,5-b]pyridin-2-yloxy)-benzofuran-3-ylmethyl]-2,5-diaza-bicyclo[2.2.1]hept-2-yl}-ethanone] | 26 | 7 | 83 | 83 | –
CC(=O)N[C@H]1C[C@H]2CC[C@@H](C1)N2Cc1coc2cc(Oc3nc4ncccc4s3)ccc12 [Example 155, meso-endo-N-{8-[6-(Thiazolo[4,5-b]pyridin-2-yloxy)-benzofuran-3-ylmethyl]-8-aza-bicyclo[3.2.1]oct-3-yl}-acetamide] | 9 | – | 85 | 88 | 2
